According to patent US10973810B2, “Methods for the treatment of neurological disorders” (Yumanity Therapeutics, Inc., priority 2017, dated 2021):

Experiments:
Format in all cases: cell-based
[1] = system: alpha-synuclein (A53T) transfected rat cortical neurons; assay: Neurite degeneration assay in transfected rat cortical neurons
Method: Rat primary cortical neurons cultured in 96-well plates (Greiner Bio-One) were co-transfected with a fluorescence reporter plasmid (encoding mKate2) and empty or alpha-synuclein-A53T overexpression plasmids by lipofection at 5-6 div (days in vitro). LIPOFECTAMINE® 2000 transfection reagent (Thermo Fisher) (0.5 μl/well) was diluted in NEUROBASAL® media (Thermo Fisher) and incubated for 5-10 min. The LIPOFECTAMINE®/NEUROBASAL® mixture was then added dropwise to a plasmid cocktail diluted in NEUROBASAL® media, and incubated for approximately 40 min. During this time, conditioned media on the neurons was replaced with media containing 1× kynurenic Acid (Sigma-Aldrich) in NEUROBASAL® media (NBKY). LIPOFECTAMINE®/DNA complex solutions were subsequently added dropwise to neurons in the NBKY media in the 96-well plate. Lipofection was carried out for 30-40 min in a standard cell culture incubator (37° C., 5% CO2). Neurons were then washed with NEUROBASAL® media, and 50% conditioned/50% fresh NEUROBASAL® media containing B-27 supplement and GlutaMax™ (Thermo Fisher) (NBM) was applied to the cultures.
Transfected rat cortical neuron cultures were treated with DMSO or CAY10566 compound 4-6 h post-transfection. […] Neurite lengths of transfected neurons were tracked by an RFP reporter, mKate2, and measured by NeuroTrack™ Software Module (Essen Bioscience). […]

[2] = system: human iPSC-derived neurons harboring the alpha-synuclein A53T mutation; assay: Neuron survival assay, human iPSC-derived neurons harboring the alpha-synuclein A53T mutation; conditions: 100 nM and 30 nM; relative to DMSO controls in A53T neurons; 8 to 10 d
Method: FIG. 15 is a graph showing that SCD inhibition with CAY10566 reduced the cumulative risk of death in human iPSC-derived neurons harboring the alpha-synuclein A53T mutation. Human iPSC cells harboring the alpha-synuclein A53T mutation or an isogenic control line in which the mutation was corrected to wild-type were trans-differentiated into neurons. Single cells were evaluated for survival (based on overall morphology) over the course of the 192 hour study. Cell survival data was analyzed by a non-parametric Kaplan-Meier procedure to estimate survival probability, which is shown as the cumulative risk of cell death. (HR, hazard ratio; P, p value (*<0.05, ns=not significant (>0.05)); CI, confidence interval; N, number of neurons tracked). […]
Transfected neuronal cultures were imaged at 12-24 h intervals for the indicated number of days by robotic microscopy. Fluorescence images were acquired with a Nikon Eclipse Ti microscope equipped with a motorized stage, 20× extra-long working distance (ELWD) objective, and an Andor Zyla cMOS camera. […] Images were processed and analyzed with custom-made scripts in R and ImageJ software. The lifetimes of individual neurons were determined by tracking fluorescently-labeled neurons in ImageJ. Neuronal death was determined to occur upon incidence of RFP signal loss or rupture of cell body. […]

[3] = system: A53T α-synuclein transfected human iPSC-derived neurons; assay: Neuron survival, A53T α-synuclein transfected human iPSC-derived neurons; conditions: all tested concentrations (3 μM to 0.3 μM); relative to DMSO controls
Method: FIG. 16 is a graph illustrating that non-selective SCD reference inhibitor, CAY10566, reduces risk of death in A53T α-synuclein transfected human iPSC-derived neurons. Human iPSC-derived neurons were co-transfected with a fluorescence reporter plasmid encoding RFP (morphology tracer) and control plasmid (empty) or plasmid containing α-synuclein-A53T mutation (syn-A53T). Neuron groups as indicated were treated with either DMSO or CAY10566 at the indicated doses. The lifetimes of single neurons were tracked over time based on either loss of RFP fluorescence signal or morphological indicators of neuron death such as loss of neurites or cell blebbing. […] Cox proportional hazard analysis was used to estimate relative risk of death, or hazard ratio (HR) and the P value was determined by the logrank test. […]
FIG. 17 is a graph illustrating that an SCD5-selective inhibitor reduces risk of death in A53T α-synuclein transfected human iPSC-derived neurons. Human iPSC-derived neurons were co-transfected with a fluorescence reporter plasmid encoding RFP (morphology tracer) and control plasmid (empty) or plasmid containing α-synuclein-A53T mutation (syn-A53T). […] The lifetimes of single neurons were tracked over time based on either loss of RFP fluorescence signal or morphological indicators of neuron death such as loss of neurites or cell blebbing. […]

Cc1nnc(-c2ccc(N3CCC(Oc4cc(F)ccc4Cl)CC3)nn2)o1 [CAY10566]
neurite degeneration at highest concentrations ([1]; 10 nM and 3 nM, overlapping with control cultures not transfected with alpha-synuclein A53T): complete rescue | neurite degeneration ([1]; titration from 10 nM down to 10 pM, tracked every 6 h for 7 d, relative to DMSO): concentration-dependent decrease in neurite degeneration | risk of neuron death [2]: significantly reduced | risk of neuron death [3]: significantly reduced
